As usually defined, the IC50 is the concentration needed to halve the response being measured. A low value points to inhibition by little substance.

The target in the assay is T1, human ABCC4 (ABCC4/MRP4) (Homo sapiens, UniProt O15439).
T1 sequence (O15439 1-1325): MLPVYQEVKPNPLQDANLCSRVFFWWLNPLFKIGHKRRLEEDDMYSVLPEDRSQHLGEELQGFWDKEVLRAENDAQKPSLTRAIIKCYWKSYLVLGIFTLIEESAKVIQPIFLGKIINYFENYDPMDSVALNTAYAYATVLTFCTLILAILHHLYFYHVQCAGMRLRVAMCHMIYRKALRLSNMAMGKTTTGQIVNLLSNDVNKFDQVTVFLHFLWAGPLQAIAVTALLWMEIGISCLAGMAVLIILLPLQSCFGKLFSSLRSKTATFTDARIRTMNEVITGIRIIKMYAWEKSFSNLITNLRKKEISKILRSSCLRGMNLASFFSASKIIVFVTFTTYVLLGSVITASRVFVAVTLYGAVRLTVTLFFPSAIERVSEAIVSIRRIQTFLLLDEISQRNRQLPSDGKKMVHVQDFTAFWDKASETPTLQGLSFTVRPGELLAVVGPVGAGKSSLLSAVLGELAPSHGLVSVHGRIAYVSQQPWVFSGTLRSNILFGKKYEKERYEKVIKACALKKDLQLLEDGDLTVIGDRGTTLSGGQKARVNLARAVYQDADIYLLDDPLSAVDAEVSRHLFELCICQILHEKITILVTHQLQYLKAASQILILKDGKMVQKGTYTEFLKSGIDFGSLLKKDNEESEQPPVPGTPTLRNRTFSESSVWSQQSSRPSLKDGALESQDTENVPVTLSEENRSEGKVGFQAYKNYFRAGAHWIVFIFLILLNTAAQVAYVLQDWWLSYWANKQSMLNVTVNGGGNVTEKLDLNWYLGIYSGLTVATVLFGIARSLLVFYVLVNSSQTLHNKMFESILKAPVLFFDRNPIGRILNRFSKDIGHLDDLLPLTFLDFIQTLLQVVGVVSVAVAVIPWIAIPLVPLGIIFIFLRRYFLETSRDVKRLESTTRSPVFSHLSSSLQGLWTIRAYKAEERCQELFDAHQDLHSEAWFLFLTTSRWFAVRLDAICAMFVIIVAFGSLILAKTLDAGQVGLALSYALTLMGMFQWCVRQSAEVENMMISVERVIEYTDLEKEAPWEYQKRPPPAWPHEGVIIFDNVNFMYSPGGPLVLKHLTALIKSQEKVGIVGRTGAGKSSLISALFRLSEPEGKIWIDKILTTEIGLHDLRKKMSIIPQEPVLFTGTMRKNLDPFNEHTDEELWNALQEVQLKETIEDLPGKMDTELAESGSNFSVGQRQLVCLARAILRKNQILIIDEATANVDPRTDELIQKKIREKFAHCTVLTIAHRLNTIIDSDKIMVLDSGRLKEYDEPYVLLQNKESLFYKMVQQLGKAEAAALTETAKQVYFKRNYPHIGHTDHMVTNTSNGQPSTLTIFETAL
In words: inhibition of basal ATPase activity, ABCC4 in lipid nanodiscs, logistic fit. The class given is biochemical.

With `OCCN(CCO)c1nc(N2CCCCC2)c2nc(N(CCO)CCO)nc(N3CCCCC3)c2n1` [dipyridamole], the half-inhibitory concentration (IC50) is about 2.1 µM.

The values are drawn from paper doi:10.1101/2022.12.25.521909v1 (biorxiv, 2022).
